Calls of active or inactive are those of the source. The calls are words filed in the database; no cut-off is given here.
Legend:
LX-2 [1] = assay: Antifibrotic activity in TGF-beta1 induced human LX2 cells assessed as downregulation of TIMP1 protein expression incubated for 24 hrs by western blotting analysis; format: functional, cell-based
[2] = target: Collagen alpha-1(I) chain (Homo sapiens) (UniProt P02452); assay: Inhibition of COL1A1 (unknown origin) expressed in human LX2 cells at 20 micromol/L incubated for 48 hrs by Bright-Glo luciferase assay relative to control; format: cell-based; conditions: dose 20.0 µmol/L
Sequence of Collagen alpha-1(I) chain (Homo sapiens) (P02452 whole entry): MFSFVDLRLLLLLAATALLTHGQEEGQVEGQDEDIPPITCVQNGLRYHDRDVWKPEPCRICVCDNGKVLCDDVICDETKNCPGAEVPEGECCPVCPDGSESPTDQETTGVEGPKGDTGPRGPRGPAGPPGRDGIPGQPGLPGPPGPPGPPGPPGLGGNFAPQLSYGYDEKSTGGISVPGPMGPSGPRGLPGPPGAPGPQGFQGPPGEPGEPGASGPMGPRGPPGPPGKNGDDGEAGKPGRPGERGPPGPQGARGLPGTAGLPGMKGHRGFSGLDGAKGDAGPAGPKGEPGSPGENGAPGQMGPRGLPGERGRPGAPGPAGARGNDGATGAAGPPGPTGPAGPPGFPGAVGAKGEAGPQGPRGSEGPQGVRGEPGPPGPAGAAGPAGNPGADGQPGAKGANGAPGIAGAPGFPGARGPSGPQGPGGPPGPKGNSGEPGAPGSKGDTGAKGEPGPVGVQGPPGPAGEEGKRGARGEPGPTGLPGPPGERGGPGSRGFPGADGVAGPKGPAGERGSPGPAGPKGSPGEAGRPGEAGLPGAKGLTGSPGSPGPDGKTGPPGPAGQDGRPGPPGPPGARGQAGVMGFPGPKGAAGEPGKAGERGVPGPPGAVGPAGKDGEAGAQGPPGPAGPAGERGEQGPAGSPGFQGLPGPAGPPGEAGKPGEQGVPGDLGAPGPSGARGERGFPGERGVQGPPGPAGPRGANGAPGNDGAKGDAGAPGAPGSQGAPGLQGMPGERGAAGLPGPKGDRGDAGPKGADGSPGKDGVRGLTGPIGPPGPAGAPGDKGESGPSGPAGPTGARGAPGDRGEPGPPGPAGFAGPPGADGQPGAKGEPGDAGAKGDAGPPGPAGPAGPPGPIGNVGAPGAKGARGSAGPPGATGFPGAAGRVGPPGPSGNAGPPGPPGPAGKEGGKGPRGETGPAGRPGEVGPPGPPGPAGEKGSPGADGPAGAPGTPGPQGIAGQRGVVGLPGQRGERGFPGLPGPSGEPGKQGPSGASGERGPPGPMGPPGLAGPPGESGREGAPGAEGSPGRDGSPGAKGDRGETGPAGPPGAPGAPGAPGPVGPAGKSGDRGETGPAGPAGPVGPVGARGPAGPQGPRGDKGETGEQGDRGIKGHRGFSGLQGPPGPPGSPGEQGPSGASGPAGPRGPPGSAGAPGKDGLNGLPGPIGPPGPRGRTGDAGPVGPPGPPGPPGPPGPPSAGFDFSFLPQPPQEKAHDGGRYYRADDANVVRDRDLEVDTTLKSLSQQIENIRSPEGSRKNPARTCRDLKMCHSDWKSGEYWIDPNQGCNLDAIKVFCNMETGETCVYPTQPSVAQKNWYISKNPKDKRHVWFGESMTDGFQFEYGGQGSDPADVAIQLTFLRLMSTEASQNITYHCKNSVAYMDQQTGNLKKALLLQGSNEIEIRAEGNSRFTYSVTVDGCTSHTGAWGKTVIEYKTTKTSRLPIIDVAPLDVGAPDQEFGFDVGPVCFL

Mus musculus = assay: Antifibrotic activity in CDAHFD induced non-alcoholic steatohepatitis C57BL/6N mouse model assessed as downregulation of MMP2 mRNA expression at 200 mg/kg,po qd administration for 4 weeks by qRT-PCR analysis; format: functional, organism-based
LX-2 [3] = assay: Antifibrotic activity in TGF-beta1 induced human LX2 cells assessed as downregulation of alpha-SMA protein expression incubated for 24 hrs by western blotting analysis; format: functional, cell-based

## COc1cc2c(cc1OC)-c1cc3ccc(OC)c(OCc4cccc(C)c4)c3c[n+]1CC2.[Br-]
LX-2 [1]
  Activity: Dose-Dependent Effect
[2]
  inhibition: 72.4%
Mus musculus
  Activity: Active
LX-2 [3]
  Activity: Dose-Dependent Effect

Source: ChEMBL document CHEMBL5385846, “Discovery and development of palmatine analogues as anti-NASH agents by activating farnesoid X receptor (FXR)” (Eur J Med Chem, 2023)
